In ChEMBL document CHEMBL1201862, “PubChem BioAssay data set” (2004):
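Each compound was tested at five concentrations against cells in 96-well plates for 48 hours. GI50 marks 50% less growth.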 The source made the active and inactive calls. Cut-off read from the data, not from the text of the source: active = GI50 up to about 1.1 µM and inactive = higher.

Key:
Test in all cases: NCI tumour cell line growth inhibition, 48 h
[1] = system: A549
[2] = system: CAKI-1
[3] = system: CCRF-CEM
[4] = system: COLO 205
[5] = system: DU-145
[6] = system: HCT-116
[7] = system: HCT-15
[8] = system: Hs-578T
[9] = system: K562
[10] = system: KM12
[11] = system: MDA-MB-231
[12] = system: MOLT-4
[13] = system: NCI-H23
[14] = system: NCI-H460
[15] = system: RXF 393
[16] = system: SF-539
[17] = system: SK-MEL-5
[18] = system: SK-OV-3
[19] = system: T47D
[20] = system: TK-10

SMILES	GI50 [1]	GI50 [2]	GI50 [3]	GI50 [4]	GI50 [5]	GI50 [6]	GI50 [7]	GI50 [8]	GI50 [9]	GI50 [10]	GI50 [11]	GI50 [12]	GI50 [13]	GI50 [14]	GI50 [15]	GI50 [16]	GI50 [17]	GI50 [18]	GI50 [19]	GI50 [20]
c1ccc(CN2COc3c(ccc4c5c(ccc34)CN(Cc3ccccc3)CO5)C2)cc1	> 100 µM (inactive)	> 100 µM (inactive)	> 100 µM (inactive)	> 100 µM (inactive)	> 100 µM (inactive)	> 100 µM (inactive)	> 100 µM	> 100 µM (inactive)	> 100 µM (inactive)	> 100 µM (inactive)	> 100 µM (inactive)	> 100 µM (inactive)	> 100 µM (inactive)	> 100 µM (inactive)	> 100 µM (inactive)	> 100 µM (inactive)	> 100 µM (inactive)	> 100 µM (inactive)	> 100 µM (inactive)	> 100 µM (inactive)
O=c1c(Cc2cccc(Cc3c(O)oc4ccccc4c3=O)c2)c(O)oc2ccccc12	> 100 µM (inactive)	> 100 µM (inactive)	> 100 µM (inactive)	> 100 µM (inactive)	> 100 µM (inactive)	> 100 µM (inactive)	> 100 µM	> 100 µM (inactive)	> 100 µM (inactive)	> 100 µM (inactive)	> 100 µM (inactive)	> 100 µM (inactive)	> 100 µM (inactive)	> 100 µM (inactive)	> 100 µM (inactive)	> 100 µM (inactive)	> 100 µM (inactive)	> 100 µM (inactive)	> 100 µM (inactive)	> 100 µM (inactive)
O=C(Nc1ccccc1)OCCN=C1c2ccccc2CCc2ccccc21	17.5 µM (inactive)	18.5 µM (inactive)	20.6 µM (inactive)	17.6 µM (inactive)	24.5 µM (inactive)	14.6 µM (inactive)	15.7 µM	18.5 µM (inactive)	15.1 µM (inactive)	14.3 µM (inactive)	15.1 µM (inactive)	9.73 µM (inactive)	55.2 µM (inactive)	21.4 µM (inactive)	19.4 µM (inactive)	18.2 µM (inactive)	13.4 µM (inactive)	23.6 µM (inactive)	15.3 µM (inactive)	31.8 µM (inactive)
COc1ccc(C=O)cc1Oc1ccc(C[C@H]2c3c(cc(OC)c4c3Oc3cc5c(cc3O4)CCN(C)C5=O)CCN2C)cc1	36.2 µM (inactive)	18.7 µM (inactive)	10 µM (inactive)	20.8 µM (inactive)	12.1 µM (inactive)	7.05 µM (inactive)	10.1 µM	8.04 µM (inactive)	6.05 µM (inactive)	8.91 µM (inactive)	7.6 µM (inactive)	9.95 µM (inactive)	7.14 µM (inactive)	9.04 µM (inactive)	3.59 µM (inactive)	8.67 µM (inactive)	7.33 µM (inactive)	6.73 µM (inactive)	33.7 µM (inactive)	11.2 µM (inactive)
C=C(CCC/C(C)=C/C=C/[C@]1(C)CCCc2ccoc21)CC(=O)O	> 100 µM (inactive)	> 100 µM (inactive)	50 µM (inactive)	> 100 µM (inactive)	42.5 µM (inactive)	60 µM (inactive)	98.9 µM	50.5 µM (inactive)	84.3 µM (inactive)	> 100 µM (inactive)	> 100 µM (inactive)	38.7 µM (inactive)	> 100 µM (inactive)	> 100 µM (inactive)	> 100 µM (inactive)	> 100 µM (inactive)	> 100 µM (inactive)	> 100 µM (inactive)	> 100 µM (inactive)	> 100 µM (inactive)
CCOC(=O)C1(Cc2ccccc2)CCN(C(=O)c2ccccc2)C2C1C2(Cl)Cl (stereo not given)	30.1 µM (inactive)	24.3 µM (inactive)	20 µM (inactive)	18.3 µM (inactive)	33 µM (inactive)	15 µM (inactive)	27.8 µM	26.7 µM (inactive)	27 µM (inactive)	29.9 µM (inactive)	17.1 µM (inactive)	20 µM (inactive)	23.5 µM (inactive)	16.8 µM (inactive)	16 µM (inactive)	18 µM (inactive)	15.9 µM (inactive)	28.6 µM (inactive)	14.1 µM (inactive)	24.4 µM (inactive)
COc1cc2c3c(c1O)C1(C=CC(=O)C=C1)CC3N(C)CC2 (stereo not given) [GLAZIOVINE]	22.4 µM (inactive)	7.29 µM (inactive)	2.31 µM (inactive)	5.4 µM (inactive)	13.2 µM (inactive)	3.81 µM (inactive)	5.96 µM	14.4 µM (inactive)	5.2 µM (inactive)	4.48 µM (inactive)	4.86 µM (inactive)	4.26 µM (inactive)	11.2 µM (inactive)	4.11 µM (inactive)	6.14 µM (inactive)	10.1 µM (inactive)	14 µM (inactive)	31.3 µM (inactive)	11.7 µM (inactive)	21.6 µM (inactive)
CCOc1ccc2c(c1)c(=O)c1c(NCCN(CC)CC)ccc3nnn2c31	> 39.5 µM (inactive)	20.7 µM (inactive)	4.91 µM (inactive)	33.9 µM (inactive)	19.1 µM (inactive)	> 25.4 µM (inactive)	16.9 µM	57 µM (inactive)	18.2 µM (inactive)	14 µM (inactive)	18.6 µM (inactive)	3.34 µM (inactive)	14.9 µM (inactive)	10.9 µM (inactive)	8.55 µM (inactive)	9.08 µM (inactive)	16.3 µM (inactive)	> 100 µM (inactive)	> 100 µM (inactive)	16.7 µM (inactive)
c1ccc(/N=C(\N2CCOCC2)N(CCN2CCOCC2)c2ccccc2)cc1	> 100 µM (inactive)	> 100 µM (inactive)	> 100 µM (inactive)	> 100 µM (inactive)	> 100 µM (inactive)	98.2 µM (inactive)	> 100 µM	> 100 µM (inactive)	> 100 µM (inactive)	> 100 µM (inactive)	> 100 µM (inactive)	> 100 µM (inactive)	> 100 µM (inactive)	> 100 µM (inactive)	> 100 µM (inactive)	> 100 µM (inactive)	> 100 µM (inactive)	> 100 µM (inactive)	> 100 µM (inactive)	> 100 µM (inactive)
COc1cc2c(cc1OC)C1c3ccccc3CCN1CC2 (stereo not given)	> 100 µM (inactive)	> 100 µM (inactive)	> 100 µM (inactive)	58.7 µM (inactive)	> 100 µM (inactive)	36.8 µM (inactive)	> 100 µM	58.2 µM (inactive)	57.7 µM (inactive)	> 100 µM (inactive)	68.7 µM (inactive)	78.3 µM (inactive)	63.5 µM (inactive)	94.4 µM (inactive)	> 100 µM (inactive)	31.1 µM (inactive)	81.1 µM (inactive)	> 100 µM (inactive)	75.9 µM (inactive)	> 100 µM (inactive)
